Literature values in EP0837672B9, “PREPARATIONS AND METHODS FOR THE TREATMENT OF T CELL MEDIATED DISEASES” (YEDA RESEARCH AND DEVELOPMENT CO. LTD., priority 1995, dated 2005).

Tested on: mice
Settings: administered to mice sc in an oil vehicle such as incomplete Freund's adjuvant (IFA)

Row | Substance | peptide therapy for treatment of IDDM
1 | p277: peptide corresponding to positions 437-460 of the human hsp 60 sequence (VLGGGCALLRCIPALDSLTPANED; UniProt P10809 437-460, looked up, fragment) | effective
2 | p32: peptide corresponding to positions 466-485 of the human hsp60 sequence (EIIKRTLKIPAMTIAKNAGV; UniProt P10809 466-485, looked up, fragment) | effective
3 | p12: peptide corresponding to positions 166-185 of the human hsp60 sequence (EEIAQVATISANGDKEIGNI; UniProt P10809 166-185, looked up, fragment) | effective
